Entries after “also recorded” stand apart in the source; their conditions may differ.

Experiment [1] relates to RSV. Put plainly: RSV plaque inhibition assay: peptide pre-incubated with RSV, added to HEp-2 cells. It is filed as cell-based, respiratory syncytial virus (A2 strain). The settings on record: 3 days; for plaque formation: peptide 5 mg/ml and 10 mg/ml incubated 1 h with RSV, vs PBS controls.
Experiment [2] concerns RSV. Put plainly: Cell-to-cell spread / syncytium formation of RSV in HEp-2 monolayers, peptide added to cells. In kind it is cell-based, respiratory syncytial virus.
For experiment [3], the system named is parainfluenza virus 3 (PIV3). Put plainly: Syncytium formation by parainfluenza virus 3 in HEp-2 cells. In kind it is cell-based. On the procedure: RhoA77-95 was also added to HEp-2 cells in conjunction with parainfluenza virus 3 (PIV3) as infectious agent, as well as MT-2 cells, in conjunction with human immunodeficiency virus 1 (HIV-1) as infectious agent. Both viruses are known to cause the formation of syncytia during infection.

The subject of experiment [4] is RSV. Nature of the experiment: RSV infection of BALB/c mice, intranasal peptide treatment. It is filed as in vivo.
The subject of another experiment is HIV. Put plainly: MAGI cell assay of HIV entry. It is filed as cell-based. Particulars: β-galactosidase activity as endpoint.
Experiment [5] concerns RSV. In kind it is cell-based, respiratory syncytial virus. The settings on record: protein added to RSV prior to infection of HEp-2 cells.
Setting [6] is: 10 amino acid peptides added to HEp-2 cell medium.
The mark [7] stands for this setting: 500 μg intranasally at the time of RSV challenge, 10^7 pfu RSV.
The mark [8] stands for this setting: 500 μg intranasally on day 4 after RSV infection, vs PBS-treated controls.

In the case of “RhoA67-85: 19 amino acid peptide comprising RhoA amino acids 67-85 (DRLRPLSYPDTDVILMCFS; UniProt P61586 67-85, looked up, fragment)”, in the experiment on RSV [1], the plaque formation result is “no inhibition”. In addition, in the experiment with HIV-1, the “destruction of infected MT-2 cells” value was “completely destroyed by day 14” and the “syncytium formation by HIV-1” value is “visible syncytia by day 4”.

“RhoA77-86: 10 amino acid peptide, RhoA residues 77-86 (TDVILMCFSI; UniProt P61586 77-86, looked up, fragment)”: in the experiment on RSV [2] (setting [6]), the syncytium formation entry is “did not block”.

“RhoA77-95: 19 amino acid peptide comprising the sequence of amino acids 77-95 of the RhoA protein (TDVILMCFSIDSPDSLENI; UniProt P61586 77-95, looked up, fragment)”: in experiment [3], the “syncytium formation by PIV3” value is given as “inhibited”. For the same substance, the “antigen-positive cells by immunoperoxidase staining” value with RSV [1] (RSV-specific antibody) is reported as “no antigen-positive cells were found”. In addition, in the experiment on RSV [1], the plaque formation result is listed as “completely blocked; also recorded: inhibited; also recorded: inhibit plaque formation”. Besides, in the experiment with RSV [4] (setting [7]), the illness result is listed as “no discernable illness” and the weight loss entry is reported as “no discernable illness or weight loss”. For the same substance, in the experiment on RSV [4] (setting [8]), the signs of illness result is reported as “markedly diminished” and the weight loss entry was “slight reduction”. In addition, in the experiment with RSV [4] (administered to mice), the “inhibition of RSV in vivo” value is “inhibited RSV in vivo”. For the same substance, the “Day 5 RSV Titer (Log10 pfu/gram lung ± S.D.)” value in the experiment with RSV [4] (peptide treatment on day 0 (time of challenge), lung plaque assay) was found to be 3.7 ± 0.3 Log10 pfu/gram lung. The “Day 5 RSV Titer (Log10 pfu/gram lung ± S.D.)” value with RSV [4] (peptide treatment on day 4, lung plaque assay) is recorded as 4.7 ± 0.3 Log10 pfu/gram lung. Moreover, in the experiment on RSV [4] (treatment at the time of infection, day 5 lungs), the “decrease of RSV titers in lung” value is reported as “over 100 fold”. Moreover, the “reduction of RSV titers in lung” value in the experiment on RSV [4] (treatment on day 4, day 5 lungs) was “more than 10 fold”. Besides, the syncytia formation result with RSV [2] (peptide 5 mg/ml added 20 or 24 hours post-adsorption, HEp-2, evaluated after three days) is given as “inhibited syncytia formation”. Besides, in the experiment with RSV [2] (peptide 5 mg/ml added 4 hours after RSV adsorption, HEp-2, evaluated after three days), the “number of virus infected cells” value is “reduced the number of virus infected cells and limited infection to single cells”. Also, the “cell-to-cell spread of RSV” value in the experiment with RSV [2] (peptide added after RSV adsorption, HEp-2) is listed as “inhibited”. The “HIV virus entry into cells” value with HIV was “Inhibition”. In the experiment on HIV-1, the “HIV-1 replication (RT and p24 assays)” value is given as “inhibited”; the “HIV-1 virus entry into / infection of MT-2 cells” value is reported as “inhibited”; the “reverse transcriptase activity in culture supernatants” value is “undetectable”.

With “RhoA80-89: 10 amino acid peptide comprising amino acid residues 80-89 of the RhoA protein sequence (ILMCFSIDSP; UniProt P61586 80-89, looked up, fragment)”, the “RSV entry into HEp-2 cells” value in the experiment with RSV [2] (setting [6]) is given as “completely blocked”.

On to “RhoA83-92: 10 amino acid peptide, RhoA residues 83-92 (CFSIDSPDSL; UniProt P61586 83-92, looked up, fragment)”, for which the syncytium formation entry in the experiment on RSV [2] (setting [6]) is “did not block”.

On to “RhoA87-105: 19 amino acid peptide comprising RhoA amino acids 87-105 (DSPDSLENIPEKWTPEVKH; UniProt P61586 87-105, looked up, fragment)”, for which the plaque formation entry in the experiment on RSV [1] was “no inhibition”. For the same substance, in the experiment with HIV-1, the “destruction of infected MT-2 cells” value was “completely destroyed by day 14” and the “syncytium formation by HIV-1” value was “visible syncytia by day 4”.

For the substance “whole RhoA protein: whole RhoA protein, 193 amino acid small GTP-binding protein”, the “number and size of plaques” value in the experiment on RSV [5] is given as “increased”.

Source of the values: US6814968B1, “Inhibition of viral infection and spread with viral and RhoA-derived peptides” (priority 1998, dated 2004).
